Consider two compounds from publication PMC10675597, “Design, Synthesis, and Antisickling Investigation of a Thiazolidine Prodrug of TD-7 That Prolongs the Duration of Action of Antisickling Aromatic Aldehyde” (Pharmaceutics, 2023).

Data set [1] is described as follows: In-vivo pharmacokinetic study in rat. The arrangement: species or system male Sprague Dawley rats. On the procedure:
Investigations were carried out to examine the pharmacokinetic profiles of Pro-7, including the enteric-coated microspheres and the intravenous (IV) formulation using a one-period parallel design. The study design and conduct adhered to ethical guidelines and regulatory standards to ensure the welfare of the animals. The study was also conducted in strict adherence to internationally recognized guidelines for ethical research and regulatory standards. The principles of Good Clinical Practice (GCP), the guidelines set forth by the International Conference on Harmonization (ICH), and the rigorous standards of the European Medicines Agency (EMA) served as the framework for the study’s execution. The protocol for the animal study underwent a thorough evaluation and received formal approval from the Research Ethics Committee at the Faculty of Pharmacy, King Abdulaziz University, Saudi Arabia.
Male Sprague Dawley rats, each with an average weight of 250 g were housed in a controlled facility with a 12-h light/dark cycle, at constant temperature of 25 °C, with continuous access to both food and water throughout the study. All animals were acclimated to standard housing for at least 7 days. The animals were separated into distinct groups (n = 5). Group I was treated with a single PO (50 mg/kg body weight) dose, while Group II was administered a single IV (25 mg/kg body weight) dose of Pro-7. Additional three control groups were included to validate and enhance the robustness of our findings. These include a normal control group without treatment, a control IV administration group that was administered non-medicated SNEDDS formulation, and a control oral administration group that was given non-medicated oral formulation.
The oral formulation was suspended in 1% aqueous carboxymethyl cellulose. Blood samples from the jugular vein, at 0.25 (for IV only), 0.5, 2, 4, 8, 10, 12, and 24 h were collected into EDTA tubes. To determine the concentration of TD-7 in the whole blood, aliquots (45 µL) of blood samples were mixed with 20 µL of warfarin (used as IS) in a concentration of 1 µg/mL and 500 µL of 1% formic acid in acetonitrile. The vials were centrifuged for 5 min at 10,000 rpm, and 2 µL of the resulting solution was analyzed by LC-MS/MS.
The concentration of both TD-7 and Pro-7 in the collected blood samples were quantified using LC–MS/MS method utilizing LLS/DMPK/005 Shimadzu-8045 LC-MS/MS instrument equipped with Lab solution 6.8 software. Linearity of the TD-7 and Pro-7 assay methods was verified within the concentration range 8.21–3776 and 20.4–9396 ng/mL, respectively. A regression coefficient (R^2) of more than 0.993 was obtained. The analytical method was validated in accordance with the FDA Bio-analytical Method Validation Guidelines 2003. Chromatographic separation was conducted on Atlantis C18 (4.6 × 50 mm, 3.5 µm) at 30 °C. The injection volume was 2 µL, the flow rate was adjusted at 0.7 mL/min, the total run time was 2.5 min, and the mobile phase consisted of 0.1% formic acid in acetonitrile:10 mM aqueous ammonium formate (70:30 v/v). The retention times for TD-7, Pro-7 and IS were 1.047, 1.178, and 1.503 min, respectively. The limit of quantification for TD-7 and Pro-7 was established at of 8.21 and 20.4, respectively.
Pharmacokinetic parameters were calculated using non-compartmental analysis with Kinetica TM (version 4, Thermo Electron Corporation, Waltham, MA, USA) software. The following parameters were determined: Maximum plasma concentration (Cmax), Elimination half-life (t½), Area under the plasma concentration-time curve from time 0 to the last measurable concentration (AUC0–t), Area under the plasma concentration-time curve from time 0 to infinity (AUC0–∞), Clearance (Cl), and Volume of distribution (Vd).
The t½ was determined as 0.693 divided by the elimination rate constant. […]

A short description of data set [2]: Drug solubility in SNEDDS formulation. It is filed as physicochemical. As to conditions: SNEDDS (oleic acid 15%, tween 80 10%, PEG 400 75%), 25 °C, 48 h. On the procedure:
To determine the drug solubility in the prepared SNEDDS formulation, excess amount (approximately 300 mg) of Pro-7 was added to 4 mL of the prepared SNEDDS. The mixture was vortex and kept in a shaking water bath at 25 °C for 48 h, and then filtered using Acrodisc® syringe filter ([…]) and the concentration of Pro-7 determined spectrophotometrically at 296 nm.

The nature of data set [3]: Solubility study of Pro-7 in solvents. It is filed as physicochemical. The conditions noted are these: 25 °C, 48 h. On the procedure: The solubility of Pro-7 was tested in water, ethanol, methanol, dichloromethane, chloroform, and acetone. An excess amount of the Pro-7 was added to a known volume of each solvent in a screw cap vial. Each vial was kept in a shaking water bath at 25 °C for 48 h. The content of each vial was filtered using an Acrodisc® syringe filter of […] (Port Washington, NY, USA), and the concentration of Pro-7 determined spectrophotometrically at 296 nm.

In data set [4] the test system is sickling. Details: method as in PMID 30289405. As to conditions: cited from earlier work.
Details of data set [5]: method as in PMID 34657559, PMID 9490025, PMID 10376886, PMID 11154732. The conditions noted are these: cited from earlier work.
Where [6] appears, read: intravenous 25 mg/kg Pro-7, rat, blood, n = 5.
[7] abbreviates: intravenous 25 mg/kg Pro-7, rat, n = 5.
Where [8] appears, read: oral 50 mg/kg Pro-7 (enteric-coated formulation), rat, blood, n = 5.
Setting [9] is: oral 50 mg/kg Pro-7 (enteric-coated formulation), rat, n = 5.

As to “1-(2-(3-((6-(hydroxymethyl)pyridin-2-yl)methoxy)-5 methoxyphenyl)thiazolidin-4-yl)propan-1-one [Pro-7]”, the “AUC0–t” value in data set [1] (setting [6]) came out at 1830 ± 737 ng·h/mL; in data set [1] (setting [8]), 672 ± 255 ng·h/mL. The “AUC0–∞” value was determined as 1956 ± 792 ng·h/mL in data set [1] (setting [6]) and 730 ± 225 ng·h/mL in data set [1] (setting [8]). Besides, the Cmax in data set [1] (setting [6]) came to 1426 ± 926 ng/mL; in data set [1] (setting [8]), 469 ± 322 ng/mL. The t½ is on record as 4.98 ± 1.89 h in data set [1] (setting [6]) and 4.73 ± 1.22 h in data set [1] (setting [8]). Further, the Cl in data set [1] (setting [7]) came to 238 ± 85.9 mL/min/kg; in data set [1] (setting [9]), 200.89 ± 34.3 mL/min/kg. In addition, the Vd in data set [1] (setting [7]) came to 98.9 ± 45.3 L/kg; in data set [1] (setting [9]), 83.7 ± 22.1 L/kg. Besides, in data set [1] (setting [8]), the Tmax was 0.5 ± 0.0 h. The “Fraction of drug absorbed (% F)” value in data set [1] (oral 50 mg/kg vs intravenous 25 mg/kg, rat) was 18.4%. The “solubility in the prepared SNEDDS formulation” value in data set [2] is listed as 68.94 mg/mL. Moreover, the solubility was 11.64 mg/mL in data set [3] (acetone); 66.43 mg/mL in data set [3] (chloroform); 54.89 mg/mL in data set [3] (dichloromethane); 85.98 mg/mL in data set [3] (ethanol); 88.34 mg/mL in data set [3] (methanol). For the same compound, the aqueous solubility in data set [3] (water) came out at 0.165 mg/mL.

With `COc1ccc(OCc2cccc(CO)n2)c(C=O)c1` [TD-7, 2-((6-(hydroxymethyl)pyridin-2-yl)methoxy)-5-methoxybenzaldehyde], the “sickling inhibition potency over vanillin” value in data set [4] is on record as “several fold”. The “oral bioavailability (in words)” value in data set [5] was “low oral bioavailability”.
